According to article PMC7468908 (Nutrients, 2020):
Where two headings read alike, the source gives them in different places.

How the values were obtained:
MRP2 = molecular target: T1, MRP2 (Homo sapiens, UniProt Q92887); test: MRP2 vesicular transport of CDCF in Sf9 membrane vesicles; type: biochemical
T1 construct: made in house; host or cells: Sf9 insect cells (baculovirus)
Description: Experiments were performed in insect membrane vesicles, as describe previously. Human BCRP and MRP2 were expressed in Sf9 insect cells by baculoviruses. At the third day of infection, cells were collected and membrane vesicles were obtained by mechanical disruption and differential centrifugation. To get full activity for BCRP, the cholesterol levels of the vesicles were adjusted to the level of mammalian membranes. Vesicles were stored at -80°C, total protein content of preparations was measured by the Lowry method (used as a reference of the quantity). Membrane vesicles (50 μg protein/sample) were incubated at 37 °C for 10 min (without or with 4 mM of Mg-ATP) in 50 μL volume, in the presence of transporter specific fluorescent substrates (10 μM lucifer yellow (LY) for BCRP and 5 μM 5(6)-Carboxy-2′,7′-dichlorofluorescein (CDCF) for MRP2). Quality of membrane vesicles was confirmed applying known reference inhibitors (benzbromarone and Ko143). ATP dependent uptake of fluorescent substrates was examined in the presence of flavonoids (up to 50–200 μM). Each compound was dissolved in DMSO and solvent controls were applied in all experiments. […] After incubation, samples were rapidly filtered and washed on filter plate (MSFBN6B10, Millipore, Burlington, MA, USA). Accumulated substrates in vesicles were solved back from the filter by 100 μL of 10% sodium dodecyl sulfate and centrifuged into another plate. A 100-μL volume of fluorescence stabilizer was added to the samples (DMSO for LY, and 0.1 M NaOH for CDCF). Fluorescence of samples was measured by a plate reader (Victor X3 Perkin-Elmer, Waltham, MA, USA) at appropriate wavelengths (filters were λex = 405 nm and λem = 535 nm for LY as well as λex = 492 nm and λem = 635 nm for CDCF). ABC related transport was calculated by subtracting passive uptake measured without Mg-ATP (with Mg-AMP the same background was detected) from values measured in the presence of Mg-ATP.

OATP1B3 = molecular target: T2, OATP1B3 (Homo sapiens, UniProt Q9NPD5); test: OATP1B3-mediated pyranine uptake in A431 cells overexpressing OATP1B3; type: cell-based
T2 construct: host or cells: A431
T2 sequence (Q9NPD5 1-702): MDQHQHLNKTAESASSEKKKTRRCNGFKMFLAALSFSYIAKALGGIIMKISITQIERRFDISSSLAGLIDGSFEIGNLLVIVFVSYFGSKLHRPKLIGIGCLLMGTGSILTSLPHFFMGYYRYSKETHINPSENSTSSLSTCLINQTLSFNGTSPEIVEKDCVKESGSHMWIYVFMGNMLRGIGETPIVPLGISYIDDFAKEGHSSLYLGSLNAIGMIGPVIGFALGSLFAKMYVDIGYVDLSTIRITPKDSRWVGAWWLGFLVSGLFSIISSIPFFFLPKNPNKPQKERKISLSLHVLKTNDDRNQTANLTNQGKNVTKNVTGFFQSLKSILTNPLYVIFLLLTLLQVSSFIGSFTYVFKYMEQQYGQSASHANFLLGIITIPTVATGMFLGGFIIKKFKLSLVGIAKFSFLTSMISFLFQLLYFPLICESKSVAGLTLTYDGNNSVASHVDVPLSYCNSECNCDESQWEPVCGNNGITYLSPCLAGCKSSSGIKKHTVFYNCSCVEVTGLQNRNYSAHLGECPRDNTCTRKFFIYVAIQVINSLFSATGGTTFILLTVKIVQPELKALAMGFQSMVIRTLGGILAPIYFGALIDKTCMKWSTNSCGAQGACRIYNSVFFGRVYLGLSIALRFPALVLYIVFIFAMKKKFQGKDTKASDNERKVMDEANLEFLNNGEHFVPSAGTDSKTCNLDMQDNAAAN
Description: A431 cells overexpressing human OATPs, 1A2 (BC042452, HsCD00333163), 1B1 (Gene ID: AB026257), 1B3 (BC141525, HsCD00348132) or 2B1 (BC041095.1, HsCD00378878), or their mock transfected controls, were generated as previously described. Cells were cultured in Dulbecco’s Modified Eagle Medium (DMEM; Thermo Fischer Scientific, Waltham, MA, USA) supplemented with 10% fetal bovine serum, 2 mM L-glutamine, 100 units/mL penicillin and 100 µg/mL streptomycin, at 37 °C with 5% CO2.
Briefly, A431 cell overexpressing OATPs, 1A2, 1B1, 1B3 or 2B1, or their mock transfected controls, were seeded on 96-well plates in a density of 8x10^4 cells/well in 200 μL DMEM one day prior to the transport measurements. […] Thereafter, cells were incubated at 37°C for 15 min (OATP1B1 and OATP2B1), 10 min (OATP1A2), or 30 min (OATP1B3). The reactions were stopped by removing the supernatants, then the cells were washed three times with ice-cold PBS. […] OATP-dependent transport was calculated by extracting fluorescence measured in mock transfected cells. Transport activity was calculated based on the fluorescence signal in the absence (100%) of flavonoids. Experiments were repeated at least in three biological replicates. IC50 values were calculated by Hill1 fit, using the Origin Pro8.6 software ([…]).

[1] = vesicular uptake of 5 μM CDCF, read-out: IC50 for MRP2
[2] = 20 μM pyranine, 30 min, A431-OATP1B3 cells, read-out: IC50 for OATP1B3

T1 sequence (Q92887 whole entry): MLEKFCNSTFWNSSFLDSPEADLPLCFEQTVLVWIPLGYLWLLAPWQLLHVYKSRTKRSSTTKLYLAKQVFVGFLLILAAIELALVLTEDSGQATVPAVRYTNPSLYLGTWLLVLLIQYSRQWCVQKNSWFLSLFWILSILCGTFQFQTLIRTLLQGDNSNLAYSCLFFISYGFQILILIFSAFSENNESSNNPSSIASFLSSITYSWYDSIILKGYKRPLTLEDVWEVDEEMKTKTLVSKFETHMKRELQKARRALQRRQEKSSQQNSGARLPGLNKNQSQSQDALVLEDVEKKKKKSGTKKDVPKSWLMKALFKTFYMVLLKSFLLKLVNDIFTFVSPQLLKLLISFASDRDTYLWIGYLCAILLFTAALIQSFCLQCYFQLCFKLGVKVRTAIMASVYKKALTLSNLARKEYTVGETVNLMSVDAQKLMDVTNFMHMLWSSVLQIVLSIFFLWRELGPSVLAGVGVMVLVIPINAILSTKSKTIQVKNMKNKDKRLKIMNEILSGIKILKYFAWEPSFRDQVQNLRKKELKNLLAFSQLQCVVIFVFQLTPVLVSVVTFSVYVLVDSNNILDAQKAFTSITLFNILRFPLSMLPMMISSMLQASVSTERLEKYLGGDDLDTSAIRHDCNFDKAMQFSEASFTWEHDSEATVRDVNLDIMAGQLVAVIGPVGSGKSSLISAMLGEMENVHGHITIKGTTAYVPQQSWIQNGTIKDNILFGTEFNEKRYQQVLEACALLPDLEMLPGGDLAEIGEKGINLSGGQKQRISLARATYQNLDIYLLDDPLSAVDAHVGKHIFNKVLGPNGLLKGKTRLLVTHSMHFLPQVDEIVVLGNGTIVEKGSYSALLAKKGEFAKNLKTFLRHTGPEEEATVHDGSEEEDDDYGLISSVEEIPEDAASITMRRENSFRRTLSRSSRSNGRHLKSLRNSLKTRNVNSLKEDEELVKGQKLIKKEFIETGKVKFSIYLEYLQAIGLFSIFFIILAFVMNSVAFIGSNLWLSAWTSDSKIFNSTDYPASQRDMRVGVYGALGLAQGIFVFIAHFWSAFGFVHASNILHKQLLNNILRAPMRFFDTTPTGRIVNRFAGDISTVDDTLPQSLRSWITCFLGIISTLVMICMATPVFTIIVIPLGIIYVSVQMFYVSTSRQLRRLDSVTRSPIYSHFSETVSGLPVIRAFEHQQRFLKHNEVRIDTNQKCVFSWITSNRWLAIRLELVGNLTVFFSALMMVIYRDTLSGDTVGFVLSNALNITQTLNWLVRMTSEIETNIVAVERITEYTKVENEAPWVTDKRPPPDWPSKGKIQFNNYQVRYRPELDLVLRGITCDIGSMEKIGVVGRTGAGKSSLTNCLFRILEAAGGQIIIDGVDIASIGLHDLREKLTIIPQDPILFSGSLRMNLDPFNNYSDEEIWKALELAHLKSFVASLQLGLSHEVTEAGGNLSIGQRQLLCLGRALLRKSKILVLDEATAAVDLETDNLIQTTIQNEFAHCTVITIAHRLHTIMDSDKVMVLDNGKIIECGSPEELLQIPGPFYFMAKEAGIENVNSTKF

Row | IC50 (MRP2; [1]) [µM] | concentration causing statistically significant (p < 0.01) inhibition, OATP1B3 (OATP1B3; 20 μM pyranine, 30 min) [µM] | IC50 (OATP1B3; [2]) [µM] | SMILES | IC50 (MRP2) [µM] | IC50 (OATP1B3) [µM]
1 | 19.6 | 1.3 | 2.5 | O=c1c(O)c(-c2ccc(O)c(OS(=O)(=O)O)c2)oc2cc(O)cc(O)c12 [Q3′S, quercetin-3′-sulfate] | – | –
2 | 24.2 | 3.1 | 5.71 | O=C(O)C1OC(Oc2c(-c3ccc(O)c(O)c3)oc3cc(O)cc(O)c3c2=O)C(O)C(O)C1O (stereo not drawn) [Q3G, quercetin-3-glucuronide] | – | –
3 | 14.9 | 6.3 | 9.62 | COc1cc(-c2oc3cc(O)cc(O)c3c(=O)c2OC2OC(C(=O)O)C(O)C(O)C2O)ccc1O (stereo not drawn) [I3G, isorhamnetin-3-glucuronide] | – | –

Row | SMILES | IC50 (MRP2; [1]) [µM] | concentration causing statistically significant (p < 0.01) inhibition, OATP1B3 (OATP1B3; 20 μM pyranine, 30 min) [µM] | IC50 (OATP1B3; [2]) [µM] | IC50 (MRP2) [µM] | IC50 (OATP1B3) [µM]
4 | COc1cc(-c2oc3cc(O)cc(O)c3c(=O)c2O)ccc1O [IR, isorhamnetin] | – | 3.1 | – | > 30 | 3.1
5 | O=c1c(O)c(-c2ccc(O)c(O)c2)oc2cc(O)cc(O)c12 [Q, quercetin] | > 30 | 2.5 | 3.22 | – | –
